Experimental data: patent publication US4338331A, “Isoindoline derivative and a therapeutic composition thereof” (priority 1979, dated 1982)
Values joined by “and” are separate entries in the source; they are usually repeats but may differ in a detail not shown here. Equal entries are not always repeated. “Also recorded” adds a separate entry of the source.

Experiments:
[1] = Acute toxicity, oral, mouse; type: in vivo; conditions: in vivo, mouse, read-out: DL50
Method: (§1) Acute toxicity was determined orally in the Wister rat and in the Swiss mouse of both sexes.
(§2) The animals were kept fasting for at least 12 hours before the tests but whith free access to water. The compound was suspended homogeneously in gum arabic mucilage and was administered, at the set doses, in a volume of 40 ml/kg by means of a gastro-oesophageal probe.
(§3) Each dose was tested on ten animals, of which five were male and five female. The weight of the rats varied from 300 to 350 g for the males and from 220 g to 250 g for the females. The weight of the mice, of both sexes, varied from 28 g to 35 g.
(§4) The observation lasted ten days.

[2] = tested on: Swiss mouse; test: Acute toxicity, oral, mouse; type: in vivo
Method: as §1, §2, §3, §4

[3] = Chronic (subacute) toxicity, 28 days oral, male rat; type: in vivo; conditions: rat, in vivo, 4 weeks
Method: (§5) These tests were carried out on the male Wistar rat having a body weight which varied from 188 to 228 grams. The animals were randomly divided into groups of ten each, and treated in the following manner:
(§6) Group A--CONTROLS--10% gum arabic, 10 ml/kg/day by oral administration using a gastro-oesophageal probe for 28 consecutive days;
(§7) Group B--CM/1 20 mg/10 ml of 10% gum arabic per kg/day by oral administration using a gastro-oesophageal probe for 28 consecutive days;
(§8) Group C--CM/1 40 mg/10 ml of 10% gum arabic per kg/day by oral administration using a gastro-oesophageal probe for 28 consecutive days.
(§9) In all the groups tested, the body weight was measured daily at the moment of administration, and recorded at regular intervals.
(§10) The general conditions of food and water consumption were noted, and any mortality and the symptomatology were recorded.
(§11) Between the 25th and 27th day of treatment, all the tested groups were kept in suitable metabolic cages (single) in order to collect the urine spontaneously ejected, and thus determine its composition by reactive Bili-Labstix strips of Ames.
(§12) Between the 27th and 29th day of treatment, all the animals, which has fasted for 12 hours but with free access to water, were sacrificed by decapitation (a small animal decapitator of the Amer. Instr. Corp. was used). The following were determined from the blood collected from the trunk:
(§13) azotemia (Dell'Aira, in King E.--Microanalisi nella Biochimica medica. II Pensiero Sci. Ed., ROMA 1951);
(§14) glycemia (Price D. J.--Analyst 92; 198, 1967);
(§15) total bilirubinemia (Jendrassik L. and Grof. P.--Biochem. Z. 297;81, 1938);
(§16) total cholesterolemia (Huan T. C., Chen C. P., Wefler V. and Battey A.--Anal. Chem. 33; 1405, 1961);
(§17) total lipidemia (Zollner N. and Kirsch K.--Z. ges. Exp. Med. 135; 545, 1962)
(§18) SGOT and SGPT transaminase (Reitman S. and Frankel E.--Amer J. Clin. Path. 28;56, 1957);
(§19) total protidemia by the biuret colorimetric method, using lyphilised Hyland serum as standard;
(§20) sodaemia and potassaemia using the photometric method.
(§21) A macroscopic examination was also made of the main organs in order to note any alterations or tumor masses which could indicate neoplasia. Particular attention was given to the examination of the stomach and intestine of the rats treated with the highest dose, in order to determine the degree of local tolerability to repeated administration of CM/1 over 28 days by the gastro-enteric mucosa.
(§22) For this purpose, the stomach and intestine were subjected to macro and microscopic examination, these being sectioned along the greater curvature (stomach) and along the major axis (intestine), washed with tepid physiological solution extended and carefully observed with a magnifying lens, in order to note hyperemia zones with ulcerations or with other trophic alterations of the mucosa.

[4] = tested on: male Wistar rat; test: as above; type: in vivo; conditions: 20 and 40 mg/kg/day oral, 28 days
Method: as §5, §6, §7, §8, §9, §10, §11, §12, §13, §14, §15, §16, §17, §18, §19, §20, §21, §22

[5] = tested on: rat with spontaneous hypertension (SHR); test: Hypotensive activity: arterial pressure of the rat with spontaneous hypertension (TABLE 4); type: in vivo, SHR male rats; conditions: 1.2 mg/kg/day oral
Method: The effects of subacute oral treatment with CM/1 on the arterial pressure of the rat with spontaneous hypertension (SHR) were followed on 10 genetically hypertensive (SHR) male rats obtained from Charles River. They were divided at random into two groups of 5 each, and treated in the following manner:
GROUP A: CONTROLS--10% gum arabic, 5 ml/kg/day by oral administration using a gastro-oesophageal probe;
GROUP B: CM/1--1.2 mg/5 ml of gum arabic/kg/day by oral administration using a gastro-oesophageal probe.
The treatment was carried out for 28 consecutive days. The arterial pressure was recorded at regular intervals by the bloodless method, using the "BP Recorder 8005" apparatus of "W+W Electronic".
The measurement was made in the following manner: the tail of the animals was carefully depilated and then inserted into a sleeve of suitable diameter connected by a tube to a pump and a pressure gauge. The tail was then inserted into a circular transducer, which was connected to a pulse counter. When the apparatus was switched on, the pressure increased in the sleeve until the blood flow was arrested.
The pressures were now read from the pressure gauge.
Before beginning the experiments, the animals had been subjected for a week to this procedure in order to accustom them to handling.

[6] = individual rats, base of rats 1-5: 235, 215, 260, 265, 250

## CC1c2ccccc2CN1NC(=O)c1ccc(Cl)c(S(N)(=O)=O)c1 (stereo not shown) [CM/1, 1-methyl-2-(3'-sulphamyl-4'-chlorobenzamido)-isoindoline]
[1]
  LD50 at 240 h: > 2500 mg/kg
[2]; Swiss mouse, both sexes, 10 days observation
  DL50: > 2,500 mg/kg
[2]; mouse, individual doses up to 2,500 mg/kg
  deaths / toxic symptomatology: No deaths were observed either in the rat or in the mouse, nor was any particular toxic symptomatology found
[3]; daily doses up to 40 mg/kg oral, read-out: tolerated doses relative to the maximum daily human therapeutic dose
  selectivity ratio at 672 h: 560
[3]; oral, read-out: well tolerated daily dose (subacute toxicity)
  NOAEL at 672 h: ≥ 40 mg/kg/day
[4]
  alteration in the organs examined or in the gastro-enteric mucosa: No alteration was noted
  behaviour and food consumption: Behaviour was normal, as was food consumption
  deaths during the 28 days of treatment: no deaths were recorded
  sodaemia and potassaemia: slight reduction in the potassaemia and sodaemia
  symptomatology: No particular symptomatology was noted
[4]; collected days 25-27, versus controls
  urine composition: in practice similar for the controls and treated animals
[4]; except sodaemia and potassaemia
  hematic biochemical constants: all within the range of normal values for the rat of this stock
[4]; versus controls
  body weight: in practice similar to the data for the controls
  hemograms: all normal, without any significant differences between the controls and treated animals
  water consumption: slightly greater than the controls
[5]; [6]
  Systolic arterial pressure measured bloodlessly, 7th day of treatment: 210 mm Hg and 205 mm Hg and 245 mm Hg and 225 mm Hg
  Systolic arterial pressure measured bloodlessly, 14th day of treatment: 195 mm Hg and 215 mm Hg and 235 mm Hg and 200 mm Hg and 220 mm Hg
  Systolic arterial pressure measured bloodlessly, 21st day of treatment: 195 mm Hg and 210 mm Hg and 220 mm Hg and 180 mm Hg
  Systolic arterial pressure measured bloodlessly, 28th day of treatment: 185 mm Hg and 210 mm Hg and 205 mm Hg
[5]; mean, n = 5, base 245.0 ± 9.08
  Systolic arterial pressure measured bloodlessly, 7th day of treatment: 219.0 ± 7.31 mm Hg
  Systolic arterial pressure measured bloodlessly, 14th day of treatment: 213.0 ± 7.17 mm Hg
  Systolic arterial pressure measured bloodlessly, 21st day of treatment: 203.0 ± 7.00 mm Hg
  Systolic arterial pressure measured bloodlessly, 28th day of treatment: 198.0 ± 5.38 mm Hg
[5]; recording on the 28th day
  maximum reduction of the systolic arterial pressure: 20%
[5]; SHR, 28 days, 1.2 mg/kg/day
  anti-hypertensive activity: significantly reduces the systolic arterial pressure; also recorded: shows anti-hypertensive activity
